In patent publication US20240400571A1, “5,6 UNSATURATED BICYCLIC HETEROCYLES USEFUL AS INHIBITORS OF NOD-LIKE RECEPTOR PROTEIN 3” (Merck Sharp & Dohme LLC, priority 2023, published 2024):

Molecular target: T1, NLRP3 inflammasome (Homo sapiens, UniProt Q96P20)
T1 construct: host or cells: THP-1 human monocytic cells, treated with PMA and stimulated with gramicidin
Experiment: ASC-SPECK formation in THP-1 cells after gramicidin stimulation (NLRP3 inflammasome activation)
Format: cell-based
Details: PMA-treated human monocytic THP-1 cells; compound 1 h before 12.5 μg/ml gramicidin, 3-hour treatment; ASC SPECK imaging; read-out: EC50 values (nM) for Examples that inhibit NLRP3 inflammasome activation
Method: The ability of compounds to inhibit NLRP3 inflammasome activation was determined in vitro by monitoring formation of the ASC-SPECK in human monocytic THP-1 cells after stimulation. THP-1 cells (ATCC catalog #TIB-202) were maintained in complete growth media containing Roswell Park Memorial Institute RPMI (ATCC catalog #30-2001), 10% heat inactivated fetal bovine serum, 1× penicillin/streptomycin and 0.05 mM 2-mercaptoethanol. At the start of the assay, undifferentiated THP-1 cells were plated at a density of 20,000 cells per well in a 384-well plate (Poly-D-lysine coated Cell Carrier Ultra microplate, Perkin Elmer catalog #6057500) in complete growth media supplemented with 10 ng/ml phorbol 12-myristate 13-acetate (PMA; Sigma catalog #P8139), and then incubated overnight. The next day, media was replaced with assay media [RPMI (Gibco catalog #11875-093), 0.01% bovine serum albumin (BSA)]. Compounds were serially diluted in DMSO and then added to wells one hour prior to the addition of 12.5 μg/ml Gramicidin (Enzo Lifescience, catalog #ALX-350-233-M005). All incubations were carried out at 37° C. (5% CO2/95% air). Following a 3-hour treatment with gramicidin, cells are fixed with 4% paraformaldehyde and stored at 4° C. until immunofluorescence staining.
Immunofluorescence staining: Anti-ASC antibody (MBL catalog #D086-3) was desalted and labeled with Alexa 488 antibody labeling kit (Thermo catalog #A20181) prior to use as described below. After fixation, the following steps were carried out at room temperature. Cells were first permeabilized with 0.3% Triton X-100 in phosphate-buffered saline (PBS) for 15 minutes and then incubated in blocking buffer containing 5% goat serum, 0.3% tween-20 and 0.03% sodium azide in PBS for 1 hour. Cells were stained with a mixture of ASC-Alexa 488 antibody (diluted 1:200 in blocking buffer) and nuclear stain DRAQ5 (1:5000 in blocking buffer, Thermo catalog #62251) in blocking buffer for 1 hour. Following a wash with 0.3% Tween-20 in PBS, plates were imaged with an Opera Phenix High Content Screening System. The number of DRAQ5 positive cells containing ASC SPECKS were quantified in each well.
Data analysis: EC50 values were calculated by standard curve-fitting analysis using an internally developed program in TIBCO Spotfire software.

T1 sequence (Q96P20 whole entry): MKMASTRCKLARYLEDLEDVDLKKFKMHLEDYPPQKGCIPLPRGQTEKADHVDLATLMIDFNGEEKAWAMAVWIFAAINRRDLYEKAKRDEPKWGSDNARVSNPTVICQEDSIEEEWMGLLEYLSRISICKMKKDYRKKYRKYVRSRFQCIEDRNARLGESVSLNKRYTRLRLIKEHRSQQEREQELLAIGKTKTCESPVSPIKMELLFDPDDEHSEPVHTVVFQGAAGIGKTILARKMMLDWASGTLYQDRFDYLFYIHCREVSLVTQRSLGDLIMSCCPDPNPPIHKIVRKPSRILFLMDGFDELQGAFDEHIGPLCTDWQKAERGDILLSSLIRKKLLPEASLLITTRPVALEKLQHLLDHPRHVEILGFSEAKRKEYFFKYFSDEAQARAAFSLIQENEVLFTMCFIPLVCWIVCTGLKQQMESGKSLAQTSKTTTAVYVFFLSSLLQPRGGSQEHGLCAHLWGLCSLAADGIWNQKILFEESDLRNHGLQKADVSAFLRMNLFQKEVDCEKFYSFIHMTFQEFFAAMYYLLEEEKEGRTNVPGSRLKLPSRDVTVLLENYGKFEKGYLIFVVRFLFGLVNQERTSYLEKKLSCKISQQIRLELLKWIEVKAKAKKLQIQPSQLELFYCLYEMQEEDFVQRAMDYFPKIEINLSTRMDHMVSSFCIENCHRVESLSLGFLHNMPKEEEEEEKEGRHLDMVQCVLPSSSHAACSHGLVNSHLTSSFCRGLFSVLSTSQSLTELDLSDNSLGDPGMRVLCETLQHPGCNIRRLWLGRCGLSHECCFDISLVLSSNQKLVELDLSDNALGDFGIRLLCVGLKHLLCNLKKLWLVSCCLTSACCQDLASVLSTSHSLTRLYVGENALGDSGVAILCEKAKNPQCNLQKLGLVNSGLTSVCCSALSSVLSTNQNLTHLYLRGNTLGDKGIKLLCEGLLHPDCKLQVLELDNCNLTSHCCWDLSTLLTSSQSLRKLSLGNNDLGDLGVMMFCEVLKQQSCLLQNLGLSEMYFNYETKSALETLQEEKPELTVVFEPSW

EC50: 20 nM
Structure (SMILES): Cc1c(-c2ccc(C(F)(F)F)cc2O)nnc2c1ncn2[C@@H]1CCCN(C(C)C)C1 [Example 22, (R)-2-(7-(1-isopropylpiperidin-3-yl)-4-methyl-7H-imidazo[4,5-c]pyridazin-3-yl)-5-(trifluoromethyl)phenol]
